{
  "source": "patent US20050187409A1",
  "about": "“Inhibitors of RNase P proteins as antibacterial compounds” (priority 2003, published 2005)",
  "key": {"N. gonorrhoeae": {"tested_on": "N. gonorrhoeae", "assay": "Bacterial inhibition assay (growth, MTS readout)", "type": "cell-based", "conditions": "CAMHB-3% LHB medium, 35° C., 5% CO2, 24 hours", "description": "(§1) Compounds of the invention (see Table 5) were assayed for their ability to inhibit bacterial growth. Compounds were diluted from 10 mM DMSO stocks to 3 mM and 1 mM in DMSO. The compounds were further diluted from these stocks into saline for 200, 120, and 20 μM stocks. Control antibiotics were diluted similarly. Overnight cultures of bacteria were made in the following manner. N. gonorrhea was streaked onto a chocolate agar plate and incubated at 35° C./5% CO2. Rather than make an overnight culture of S. pyogenes, a loopful of S. pyogenes from a blood plate or a stock plate was used the following day for direct cell suspension.\n(§2) On the following day bacteria were prepared by dilution into saline with O.D. […] readings taken to determine the concentration of the bacteria. CFUs (colony forming units) were determined using the formula: CFU/mL=OD625×(1.5×10^8 CFU/mL/OD McFarland std)×dilution. The four bacterial cultures were diluted initially to 5.5×10^7 CFU/mL. The bacteria were then further diluted into medium to 5.5×10^5 CFU/mL for S. pyogenes and 5.5×10^6 CFU/mL for N. gonorrhea. S. pyogenes and N. gonorrhea were grown in CAMHB-3% LHB medium. The bacteria were added one per plate at 200 μL per well. Compounds were added in 10 μL aliquots for final concentrations of 10, 3, and 1 μM in duplicate. Control antibiotics, penicillin for S. pyogenes and ciprofloxacin for N. gonorrhea, were added from 0.8 mg/ml to 0.003 mg/ml. Plates were incubated at 35° C. with O2 for 16-20 hours for S. pyogenes, and read at OD665 in a Victor2 plate reader. Plates were incubated at 35° C. with 5% CO2 for 24 hours for N. gonorrhea at which time 40 μL of MTS reagent is added per well and incubated for 1 hour in same incubator. The plates were read at OD490. Compounds were tested at 1 μM, 3 μM, and 10 μM concentrations. The results, which are expressed as a percentage of the control, were calculated using equation 2. In this equation, O.D. is optical density; (O.D. compounds+bacteria) is the optical density observed for bacteria grown in the presence of a compound of the invention; (O.D. blank) is the optical density in the absence of bacteria; and (O.D. bacteria) is the optical density observed for bacteria growing uninhibited. Other RNase P inhibitors may be tested similarly using any bacteria of interest. [formula]"}, "S. pyogenes": {"tested_on": "S. pyogenes", "assay": "Bacterial inhibition assay (growth, OD readout)", "type": "cell-based", "conditions": "CAMHB-3% LHB medium, 35° C., 16-20 hours", "description": "as §1, §2"}, "[1]": {"target": "T1, N. gonorrhoeae RNase P holoenzyme (Neisseria gonorrhoeae, UniProt Q5F4W3)", "T1 sequence (Q5F4W3 1-121)": "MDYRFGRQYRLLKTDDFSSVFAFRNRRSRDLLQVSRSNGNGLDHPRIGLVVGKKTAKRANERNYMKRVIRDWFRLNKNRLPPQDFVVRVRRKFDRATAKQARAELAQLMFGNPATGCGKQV", "assay": "biochemical", "conditions": "32P-labelled pGln substrate, room temperature; read-out: N. gonorrhoeae Gel assay IC50(μM) (Example 16)", "description": "RNase P Inhibition Polyacrylamide Gel Assay\nThe substrate, the precursor of tRNA^Gln, (pGln), from Synechocystis (Pascual and Vioque, 1999), was synthesized in vitro from the corresponding cDNA by T7 RNA polymerase in the presence of α^32P-GTP. Each control RNase P reaction of 10 μl contained 50 mM Tris-HCl (pH 7.8), 10 mM MgCl2, 100 mM NH4Cl, 1 mM dithiothreitol, and 0.4-1.0 pmol pGln substrate, radiolabeled to a specific activity of 1000-10,000 cpm/pmol. The reaction mixture, containing 0.1-1 nM holoenzyme, was incubated for 5-60 min at room temperature (18-24° C.), and the reaction was terminated by addition of an equal volume of 40 mM EDTA/8 M urea. The samples were electrophoresed in denaturing 8% polyacrylamide gels. The activity was quantified by exposure of the gel to a phosphorimaging screen. For test reactions that require the addition of compounds, the RNA subunits were pre-incubated with compound for 10 min at room temperature in the presence of buffer, followed by addition of the protein subunit. After a further 10 minutes of incubation, the radiolabeled substrate was added, and the reaction initiated. Products were analyzed as just described. The IC50 was the concentration of compound that was required to inhibit RNase P activity by 50%."}, "[2]": {"tested_on": "peripheral blood mononuclear cells (PBMC)", "assay": "Cellular toxicity assay (MTS) on PBMC", "type": "cell-based, human", "conditions": "24 hours incubation, MTS reagent; read-out: PBMC's TC50", "description": "Compounds of the invention (see Table 6) were assayed for cellular toxicity as follows. Whole blood was drawn from a volunteer, and the red cells were separated from the buffy coat cells by centrifugation over ficoll-paque. The resulting peripheral blood mononuclear cells (PBMC) were collected from the interface and washed extensively with PBS by centrifugation to remove platelets and cellular debris. The cells were then plated in 96-well tissue culture plates at a density of 5×10^5 cells per mL at 200 μL per well. After an hour incubation, the candidate compounds were added at the appropriate concentrations diluted from DMSO stocks into assay buffer (RPMI medium supplemented with 10% FCS). The cells were incubated at 37° C., 100% humidity and 5% CO2 for 24 hours at which time MTS reagent was added per the manufacturer's (Promega) instructions. After 2-3 hours incubation the optical density of the wells was read on a spectrophotometer. […] The data are evaluated using equation 2 as described in Example 17, where bacterial cells are replaced by PBMC cells in the measurements. The data describes the toxicity of these compounds to a representative human cell population (PBMC's)."}, "[3]": {"target": "N. gonorrhea RNase P (M1 RNA + C5 protein) (Neisseria gonorrhoeae, UniProt Q5F4W3)", "assay": "Time resolved fluorescence (TRF) RNase P inhibition assay", "type": "biochemical", "conditions": "30 min enzyme reaction, ptGLN substrate; read-out: N. gonorrhoeae TRF IC50(μM) (Example 15)", "excerpt": "The ability of compounds of the invention to inhibit RNase P enzymes can be assessed by standard techniques. For example, the cleavage of ptRNA^Gln by the enzyme N. Gonorrhea RNase P, can be monitored in the presence and absence of a candidate compound as described in the Example 15. The progress of the RNase P-mediated cleavage reaction can be assessed by measuring the […] hybridized to the cleaved substrate.\nTime Resolved Fluorescence RNase P Inhibition Assay\n96-well Nunc MaxiSorp FluoroNunc plates were coated with 50 μl/well of 1 μg/ml of streptavidin in base buffer (150 mM KCl, 5 mM MgCl2, 50 mM Tris, pH 7.6) and incubated overnight. The plates were washed using TRF.96 protocol, and then blocked with 150 μl of a 1 mg/ml BSA solution in base buffer and incubated with shaking for sixty minutes. The plates were then washed twice with base buffer plus 0.01% Tween20. 50 μl of 40 nM T17-bt (biotinylated DNA oligonucleotide complementary to the RNaseP substrate leader sequence used to capture intact RNaseP substrate) was then added to all wells, and the plates were incubated with shaking for 1 hr.\nA 0.4 nM solution of N. gonorrhea M1 RNA was made from a 1 μM stock solution. A 0.5 nM solution of N. gonorrhea C5 protein is made by diluting a 10 μM stock. ΔUL-ptGLN UTP-bt (10 μM stock) was diluted into PA buffer for a concentration of 40 nM.\nCompounds were serially diluted in DMSO from 20 mM stocks to 6, 2, 0.6, 0.2, and 0.06 mM dilutions. These titrations were then diluted (2 μl to 100) in PA buffer, and 12.5 μl of each concentration was added in duplicate to a 96-well V-bottom polypropylene plate. The highest concentration was put in row G and the lowest in row B. Rows A & H received 12.5 μl of DMSO/PA buffer.\nThe enzyme reaction was initiated in the V-bottom polypropylene plates containing compound dilutions by adding 12.5 μl of the N. gonorrhea M1 solution to rows A-G. PA buffer was added to row H. 12.5 μl of the C5 solution was added similarly to the M1 solutions. 12.5 μl of the substrate solution was then added to all wells. The plates were incubated for 30 minutes at which time 12.5 μl of stop buffer was added to all wells. (Stop buffer: 500 μg/ml polyC/50 nM SA-Eu in 335 mM MgCl2 PA buffer).\nThe T17-biotin-coated plate was washed three times, and 37.5 μl of 75 mM MgCl2 PA buffer was added to each well. After 30 minutes incubation with the stop buffer, 12.5 μl from all of the enzyme reaction wells was transferred to the T17 plates. The plates were then incubated for 1.5 hr at room temperature with shaking. The plates were washed three times and 40 μl of Delfia enhancement solution (Wallac Oy) was added to all wells. The plates were then read on the Victor 2 plate reader."}},
  "data": [
    {"smiles": "CC(=NNC(=N)N)c1cccc(NC(=O)[C@H](Cc2ccc(-c3ccccc3)cc2)NC(=O)c2cccc(I)c2)c1", "note": "[MES 10908, Guanylhydrazone of (S)-1-(3-iodobenzoyl)-N-(3-acetylphenyl)biphenyl-alaninamide]", "values": [
      {"measurement": "MIC", "setting": "N. gonorrhoeae", "value": ">100", "unit": "µM"},
      {"measurement": "MIC", "setting": "S. pyogenes", "value": 10, "unit": "µM"},
      {"measurement": "IC50", "setting": "[1]", "value": 6, "unit": "µM"},
      {"measurement": "CC50", "setting": "[2]", "value": 5, "unit": "µM"},
      {"measurement": "IC50", "setting": "[3]", "value": 5, "unit": "µM"}
    ]}
  ]
}
